Assay results published in US20050244328A1 (priority 2002, published 2005).
Values joined by “and” are separate entries in the source; they are usually repeats but may differ in a detail not shown here. Equal values may be shown once. Read-outs that look alike come from different tables or passages of the source.

Legend:
Fecal Coliform [1] = assay: Fecal coliform kill in ClO2-dosed post clarifier effluent, side stream pilot at WWTP 1 (Membrane Filter SM 9222D)
[2] = tested on: Penicillum expansum (mould); conditions: cited from earlier work
Lactobacillus Brevis = conditions: contact time 300 s, cited from earlier work
Mysid shrimp = assay: In-house mysid shrimp acute bioassay of treated effluent; conditions: for surviving Mysid shrimp DAY 1 (bowls A, B) / surviving Mysid shrimp DAY 2 (bowls A, B) / surviving Mysid shrimp DAY 3 (bowls A, B) / surviving Mysid shrimp DAY 4 (bowls A, B): 10 initial per bowl, set up Aug. 20, 2002
M. bahia = assay: Bioassay of ClO2 treated WWTP 2 effluent by Laboratory 4, mysid shrimp; type: in vivo, Mysidopsis bahia; conditions: grabs Aug. 28, 2002 10:15, 16:00, 22:00, Aug. 29, 2002 09:30
Source text: With the success of the above bioassay series that began on Aug. 20, 2002, it was concluded that a third party test was needed to verify research data. Water grabs from the Anastasia Island Treatment Facility, taken on Aug. 28, 2002, were delivered to Laboratory 4, an independent bioassay laboratory. Additional testing of the water sent to Laboratory 4 labs was also forwarded to another contract lab to document the water quality during the sample periods for the bioassays. It should be noted here that the plant was operating under their normal operating conditions and accepting both landfill leachate as well as septic tank and portable toilet waste. These were however pumped into a storage tank and then trickled into the influent stream at the headworks.
The complete toxicological study as reference is included as attachment at the end of this study.
With the successful bioassay conducted by the Laboratory 4 labs, a second series of water samples was taken for the repeat bioassay. These samples were taken on Sep. 11, 2002 and forwarded to Laboratory 4 labs on Sep. 12, 2002 to conduct the bioassay. The results of this test for both the water quality toxicity and the bioassay are illustrated in the Tables 13, 14 and 15.
The complete toxicological results are provided at the end of this study as attachments.

Fecal Coliform [3] = assay: Fecal coliform counts in effluent, full-scale pilot and baseline at WWTP 2
Mysidopsis bahia = assay: 96-hour bioassay of ClO2 treated side stream effluent, Independent Bioassay Laboratory A, mysid shrimp; type: in vivo; conditions: end of 96-hour test period; ClO2 treated side stream effluent grabs Sep. 3, 2001 12:00, 18:00, 24:00, Sep. 4, 2001 06:00
Source text: Mysidopsis bahia (Mysids) and Menidia beryllina (Silversides) were subjected to ClO2 treated effluent in these tests. Adequate volumes of chemical were brought to the site to conduct a dosing of the side stream for a 24-hour period. During this period, 2 gallons of treated water were taken at 6-hour intervals, preserved on ice and shipped to an independent bioassay laboratory (designated Independent Bioassay Laboratory A).
Table 3(c) illustrates the survivability of the organisms at the 96-hour end-point in the test for each of the 4 samples taken (samples indicated by date and time each sample was taken.).

[4] = tested on: Pectinatus cervisiiphilus; conditions: 0.1 ppm of ClO2; contact time 5 min; cited from earlier work
Streptococcus = conditions: 1 ppm of ClO2; contact time 15 s; cited from earlier work

Chlorine dioxide [ClO2]
Fecal Coliform (Fecal Coliform [1]; 1.8 ppm, 5 min contact, pH 7.20, Feb. 6, 2001): <1 #cfu/100 mls
Fecal Coliform (Fecal Coliform [1]; 1.8 ppm, 5 min contact, pH 7.20, Feb. 7, 2001): <1 #cfu/100 mls
Fecal Coliform (Fecal Coliform [1]; 2.23 ppm, 5 min contact, pH 7.20, Feb. 6, 2001): <1 #cfu/100 mls
Fecal Coliform (Fecal Coliform [1]; 2.23 ppm, 5 min contact, pH 7.20, Feb. 7, 2001): <1 #cfu/100 mls
Fecal Coliform (Fecal Coliform [1]; 3.0 ppm, 5 min contact, pH 7.20, Feb. 6, 2001): <1 #cfu/100 mls
Fecal Coliform (Fecal Coliform [1]; 3.0 ppm, 5 min contact, pH 7.20, Feb. 7, 2001): <1 #cfu/100 mls
Fecal Coliform (Fecal Coliform [1]; 3.97 ppm, 5 min contact, pH 7.20, Feb. 6, 2001): <1 #cfu/100 mls
Fecal Coliform (Fecal Coliform [1]; 3.97 ppm, 5 min contact, pH 7.20, Feb. 7, 2001): <1 #cfu/100 mls
Fecal Coliform (Fecal Coliform [1]; 5% chlorite solution, ClO2 dose rate 3.0 mg/ltr, 5 minute contact, Jan. 24, 2001): <1 #cfu/100 mls
Fecal Coliform (Fecal Coliform [1]; 5.0 ppm, 5 min contact, pH 7.20, Feb. 6, 2001): <1 #cfu/100 mls
Fecal Coliform (Fecal Coliform [1]; 5.0 ppm, 5 min contact, pH 7.20, Feb. 7, 2001): <1 #cfu/100 mls
Fecal Coliform (Fecal Coliform [1]; Injector 1.8 ppm, 5 min contact, pH 7.30, Feb. 5, 2001): <1 #cfu/100 mls
Fecal Coliform (Fecal Coliform [1]; Injector 2.23 ppm, 5 min contact, pH 7.30, Feb. 5, 2001): <1 #cfu/100 mls
Fecal Coliform (Fecal Coliform [1]; Injector 3.0 ppm, 5 min contact, pH 7.30, Feb. 5, 2001): <1 #cfu/100 mls
Fecal Coliform (Fecal Coliform [1]; Injector 3.97 ppm, 5 min contact, pH 7.30, Feb. 5, 2001): <1 #cfu/100 mls
Fecal Coliform (Fecal Coliform [1]; Injector 5.0 ppm, 5 min contact, pH 7.30, Feb. 5, 2001, (*) bits of algae in samples): 1 (*) #cfu/100 mls and <1 #cfu/100 mls
dosing rate at which fecal coliform kills were also achieved (as low as) (Fecal Coliform [1]; further testing): 0.075 ppm
fecal coliform kill (Fecal Coliform [1]; lower dosing rate of 1.8 ppm): effectively killed
time required for a complete fecal kill (Fecal Coliform [1]; lower dosing rates): more than 2 minutes
Inactivation in % ([2]; 0.5 ppm of ClO2, contact time 60 min): 99.99%
Inactivation in % ([2]; 2 ppm of ClO2, contact time 20 min): 99.999%
Inactivation in % (Lactobacillus Brevis; 0.15 ppm of ClO2): 99.9%
Inactivation in % (Lactobacillus Brevis; 1 ppm of ClO2): >99.999%
survival rate of Mysid Shrimp 24 HR (Mysid shrimp; 0.64 PPM DOSE, 25% solution): 100
survival rate of Mysid Shrimp 48 HR (Mysid shrimp; 0.64 PPM DOSE, 25% solution): 100
survival rate of Mysid Shrimp 72 HR (Mysid shrimp; 0.64 PPM DOSE, 25% solution): 90
survival rate of Mysid Shrimp 96 HR (Mysid shrimp; 0.64 PPM DOSE, 25% solution): 90
surviving Mysid shrimp DAY 1 (bowls A, B) (Mysid shrimp; 0.64 PPM DOSE, 25% solution): 10
surviving Mysid shrimp DAY 2 (bowls A, B) (Mysid shrimp; 0.64 PPM DOSE, 25% solution): 10
surviving Mysid shrimp DAY 3 (bowls A, B) (Mysid shrimp; 0.64 PPM DOSE, 25% solution): 9
surviving Mysid shrimp DAY 4 (bowls A, B) (Mysid shrimp; 0.64 PPM DOSE, 25% solution): 9
survival rate of Mysid Shrimp 24 HR (Mysid shrimp; 0.64 PPM DOSE, 50% solution): 100
survival rate of Mysid Shrimp 48 HR (Mysid shrimp; 0.64 PPM DOSE, 50% solution): 100
survival rate of Mysid Shrimp 72 HR (Mysid shrimp; 0.64 PPM DOSE, 50% solution): 100
survival rate of Mysid Shrimp 96 HR (Mysid shrimp; 0.64 PPM DOSE, 50% solution): 100
surviving Mysid shrimp DAY 1 (bowls A, B) (Mysid shrimp; 0.64 PPM DOSE, 50% solution): 10
surviving Mysid shrimp DAY 2 (bowls A, B) (Mysid shrimp; 0.64 PPM DOSE, 50% solution): 10
surviving Mysid shrimp DAY 3 (bowls A, B) (Mysid shrimp; 0.64 PPM DOSE, 50% solution): 10
surviving Mysid shrimp DAY 4 (bowls A, B) (Mysid shrimp; 0.64 PPM DOSE, 50% solution): 10
survival rate of Mysid Shrimp 24 HR (Mysid shrimp; 0.64 PPM DOSE, 75% solution): 100
survival rate of Mysid Shrimp 48 HR (Mysid shrimp; 0.64 PPM DOSE, 75% solution): 100
survival rate of Mysid Shrimp 72 HR (Mysid shrimp; 0.64 PPM DOSE, 75% solution): 95
survival rate of Mysid Shrimp 96 HR (Mysid shrimp; 0.64 PPM DOSE, 75% solution): 90
surviving Mysid shrimp DAY 1 (bowls A, B) (Mysid shrimp; 0.64 PPM DOSE, 75% solution): 10
surviving Mysid shrimp DAY 2 (bowls A, B) (Mysid shrimp; 0.64 PPM DOSE, 75% solution): 10
surviving Mysid shrimp DAY 3 (bowls A, B) (Mysid shrimp; 0.64 PPM DOSE, 75% solution): 9 and 10
surviving Mysid shrimp DAY 4 (bowls A, B) (Mysid shrimp; 0.64 PPM DOSE, 75% solution): 8 and 10
survival rate of Mysid Shrimp 24 HR (Mysid shrimp; 0.64 PPM DOSE, 100% solution): 100
survival rate of Mysid Shrimp 48 HR (Mysid shrimp; 0.64 PPM DOSE, 100% solution): 100
survival rate of Mysid Shrimp 72 HR (Mysid shrimp; 0.64 PPM DOSE, 100% solution): 85
survival rate of Mysid Shrimp 96 HR (Mysid shrimp; 0.64 PPM DOSE, 100% solution): 70
surviving Mysid shrimp DAY 1 (bowls A, B) (Mysid shrimp; 0.64 PPM DOSE, 100% solution): 10
surviving Mysid shrimp DAY 2 (bowls A, B) (Mysid shrimp; 0.64 PPM DOSE, 100% solution): 10
surviving Mysid shrimp DAY 3 (bowls A, B) (Mysid shrimp; 0.64 PPM DOSE, 100% solution): 7 and 10
surviving Mysid shrimp DAY 4 (bowls A, B) (Mysid shrimp; 0.64 PPM DOSE, 100% solution): 5 and 9
survival rate of Mysid Shrimp 24 HR (Mysid shrimp; 1.05 PPM DOSE, 25% solution): 100
survival rate of Mysid Shrimp 48 HR (Mysid shrimp; 1.05 PPM DOSE, 25% solution): 100
survival rate of Mysid Shrimp 72 HR (Mysid shrimp; 1.05 PPM DOSE, 25% solution): 100
survival rate of Mysid Shrimp 96 HR (Mysid shrimp; 1.05 PPM DOSE, 25% solution): 100
surviving Mysid shrimp DAY 1 (bowls A, B) (Mysid shrimp; 1.05 PPM DOSE, 25% solution): 10
surviving Mysid shrimp DAY 2 (bowls A, B) (Mysid shrimp; 1.05 PPM DOSE, 25% solution): 10
surviving Mysid shrimp DAY 3 (bowls A, B) (Mysid shrimp; 1.05 PPM DOSE, 25% solution): 10
surviving Mysid shrimp DAY 4 (bowls A, B) (Mysid shrimp; 1.05 PPM DOSE, 25% solution): 10
survival rate of Mysid Shrimp 24 HR (Mysid shrimp; 1.05 PPM DOSE, 50% solution): 100
survival rate of Mysid Shrimp 48 HR (Mysid shrimp; 1.05 PPM DOSE, 50% solution): 100
survival rate of Mysid Shrimp 72 HR (Mysid shrimp; 1.05 PPM DOSE, 50% solution): 95
survival rate of Mysid Shrimp 96 HR (Mysid shrimp; 1.05 PPM DOSE, 50% solution): 95
surviving Mysid shrimp DAY 1 (bowls A, B) (Mysid shrimp; 1.05 PPM DOSE, 50% solution): 10
surviving Mysid shrimp DAY 2 (bowls A, B) (Mysid shrimp; 1.05 PPM DOSE, 50% solution): 10
surviving Mysid shrimp DAY 3 (bowls A, B) (Mysid shrimp; 1.05 PPM DOSE, 50% solution): 10 and 9
surviving Mysid shrimp DAY 4 (bowls A, B) (Mysid shrimp; 1.05 PPM DOSE, 50% solution): 9 and 10
survival rate of Mysid Shrimp 24 HR (Mysid shrimp; 1.05 PPM DOSE, 75% solution): 100
survival rate of Mysid Shrimp 48 HR (Mysid shrimp; 1.05 PPM DOSE, 75% solution): 100
survival rate of Mysid Shrimp 72 HR (Mysid shrimp; 1.05 PPM DOSE, 75% solution): 100
survival rate of Mysid Shrimp 96 HR (Mysid shrimp; 1.05 PPM DOSE, 75% solution): 95
surviving Mysid shrimp DAY 1 (bowls A, B) (Mysid shrimp; 1.05 PPM DOSE, 75% solution): 10
surviving Mysid shrimp DAY 2 (bowls A, B) (Mysid shrimp; 1.05 PPM DOSE, 75% solution): 10
surviving Mysid shrimp DAY 3 (bowls A, B) (Mysid shrimp; 1.05 PPM DOSE, 75% solution): 10
surviving Mysid shrimp DAY 4 (bowls A, B) (Mysid shrimp; 1.05 PPM DOSE, 75% solution): 10 and 9
survival rate of Mysid Shrimp 24 HR (Mysid shrimp; 1.05 PPM DOSE, 100% solution): 100
survival rate of Mysid Shrimp 48 HR (Mysid shrimp; 1.05 PPM DOSE, 100% solution): 100
survival rate of Mysid Shrimp 72 HR (Mysid shrimp; 1.05 PPM DOSE, 100% solution): 90
survival rate of Mysid Shrimp 96 HR (Mysid shrimp; 1.05 PPM DOSE, 100% solution): 70
surviving Mysid shrimp DAY 1 (bowls A, B) (Mysid shrimp; 1.05 PPM DOSE, 100% solution): 10
surviving Mysid shrimp DAY 2 (bowls A, B) (Mysid shrimp; 1.05 PPM DOSE, 100% solution): 10 and 9
surviving Mysid shrimp DAY 3 (bowls A, B) (Mysid shrimp; 1.05 PPM DOSE, 100% solution): 8 and 10
surviving Mysid shrimp DAY 4 (bowls A, B) (Mysid shrimp; 1.05 PPM DOSE, 100% solution): 6 and 8
No. of surviving shrimp DAY 2 (Mysid shrimp; 100% effluent, 10 shrimp per bowl, set up Aug. 13, 2002, ClO2 samples 14:00 and 15:00, bowls A, B, landfill leachate slug in plant): 10 and 9 and 6
AVG (% survival of bowls A and B) (Mysid shrimp; 100% effluent, set up Aug. 13, 2002, ClO2 samples 14:00 and 15:00): 40%
mysid shrimp bioassay outcome (Mysid shrimp; side stream, after adjustments to the chlorine dioxide generator (weaker hypochlorite solution)): successful (acceptable end-point survival)
Sample survival % of M. bahia (M. bahia; 6.25 % Effluent): 100%
Sample survival % of M. bahia (M. bahia; 12.5 % Effluent): 95% and 100%
Sample survival % of M. bahia (M. bahia; 25 % Effluent): 100%
Sample survival % of M. bahia (M. bahia; 50 % Effluent): 95% and 100%
Sample survival % of M. bahia (M. bahia; 100 % Effluent): 100%
FECAL (Fecal Coliform [3]; 13:00, 1.2 PPM DOSE RATE, sample point 1, 19 Aug. 2002): 6
FC (fecal) (Fecal Coliform [3]; 15:00, 0.91 PPM DOSE, sample point 4, 19 Aug. 2002): 15
FECAL (Fecal Coliform [3]; 15:45, 1.05 PPM DOSE RATE, sample point 4, 19 Aug. 2002): 26
FECAL (Fecal Coliform [3]; WWTP 2 effluent 28-Aug, CL2SO2 at 8:30, CLO2 at 10:15): 45
Percent Survival Mysid bahia (Mysidopsis bahia): 0%
Inactivation in % [4]: 99.9%
Inactivation in % (Streptococcus): >99.999%
